Test results published in ChEMBL document CHEMBL3507680, “University of Dundee, Gates Library screen for HepG2 cell viability”.

assay: Human HepG2 cell viability assay in 384 well format; assay type: toxicity, cell-based; design: dose 125 nL, time 70.5 hour; cytotoxicity at 70.5 h: concentration not given beside the values; conditions: HepG2 cells, read-out: Inhibition

Compound	cytotoxicity at 70.5 h
CC(C)[C@@H](N)C(=O)NCc1cccnc1N1CCc2ccccc2C1	-4.97%
COc1cccc2c(=O)n(Cc3nc(C)cc(O)n3)cnc12	-12.5%
CC(C)c1ccc(NC2CCCN(Cc3ccncc3)C2)cc1 (stereo not given)	0.778%
Cc1cc(C)c(C(=O)N2CCOC(CCN(C)C)C2)o1 (stereo not given)	-14.2%
Cc1nnsc1C(=O)NCc1cccnc1N(C)C	-3.02%
CCc1c(C)nn(CC(=O)NC(C)c2n[nH]c(C)n2)c1C (stereo not given)	16.1%
COc1ccc(F)c(CN2CCCC3(CCN(S(C)(=O)=O)C3)C2)c1 (stereo not given)	-10.2%
CCCc1nc(C)cc(N2CCC3(CCC(=O)N(C4CC4)C3)CC2)n1	-5.2%
CN1CC2(CCN(C(=O)c3ccc(-n4cccn4)cc3Cl)C2)OC1=O (stereo not given)	-2.7%
CCCc1nc(CNc2nc(C)nc3oc(C)nc23)cs1	-6.15%
CCn1nc(CC(C)C)cc1C(=O)NCC(F)(F)F	12.8%
Cc1nccn1CCCN1CCC(c2nccn2CC2CCC2)CC1	-3.77%
Cc1cc(N2CC[C@H](O)C2)n2nc(C)c(C)c2n1	-1.97%
O=C(Cc1cccc(O)c1)N1CCCC(OCc2cccnc2)C1 (stereo not given)	-7.55%
CC(C)N1CCC(CC(=O)NC[C@H]2CCc3ccccc3O2)CC1	-11.9%
Cc1nn(C)c2nc(NC3CCNCC3)sc12	1.8%
CN(CC1COCCO1)c1ncnc2cc(F)ccc12 (stereo not given)	19%
CCCn1ccnc1CNC(=O)C1COc2cc(OC)ccc2C1 (stereo not given)	-5.58%
Cc1nc(CCNC(=O)C2CC(=O)N(C(C)C)C2)sc1C (stereo not given)	-10.3%
CCOCCn1c(=O)n(Cc2ccccc2F)c2cc(C(=O)O)cnc21	11.9%
Cc1cc(C2CCC2)nc(N(C)Cc2cc(-c3ccccn3)no2)n1	-6.04%
COc1ccc(CN2CCCC2)cc1Oc1cccc(C#N)n1	-2.11%
Cc1cc2nc(-c3ccccc3)cc(NCC3CCS(=O)(=O)C3)n2n1 (stereo not given)	8.05%
COc1ccc(C(C(=O)O)N2CCC(Cn3cccn3)CC2)c(OC)n1 (stereo not given)	15.1%
Cc1oc(-c2cc(F)cc(F)c2)nc1CN1C[C@@H](C)NC[C@@H]1C	-11.7%
Cc1ncc(C(=O)N2CC[C@@]3(O)CCN(C4CCCCC4)C[C@H]3C2)cn1	-7.37%
CC(C)c1cncnc1N1CC[C@H](N2CCOCC2)[C@H](CCCO)C1	-9.63%

Compound	cytotoxicity at 70.5 h
CC(C)Cc1cc(C(=O)NCC(O)CN2CCCCCC2)on1 (stereo not given)	-3.2%
CC[C@@]1(O)CCN(C(=O)CN(C)Cc2ccc(F)cc2)C[C@H]1O	17.3%
COc1ccc(-c2nc3c([nH]2)CCNC3C(=O)O)c2ccc(C)nc12 (stereo not given)	12.4%
CN1CCCC1CCn1ccnc1-c1nc2ccccc2[nH]1 (stereo not given)	-0.748%
CCNc1nc(C)c(C(=O)N2CCN(c3ncccc3C)CC2)s1	-4.75%
O=S(=O)(NCCc1nc(-c2cccnc2)n[nH]1)NCc1ccccc1	-7.05%
N[C@H]1CN(S(=O)(=O)c2cccnc2)C[C@@H]1C1CC1	-4.49%
Cc1nc(C)c(C)c(NCCSCc2[nH]cnc2C)n1	-5.17%
COc1ccc(CN2CCCn3cncc3C2)cc1Cn1cncn1	-8.65%
Cc1ccc(NC2(C(=O)NCCCN)CCCC2)cc1	-8.06%
OC1(CN2CCCC2)COCCN(c2ncnc3[nH]ccc23)C1 (stereo not given)	-3.06%
CN(CC1CCCO1)c1nc(-c2cccnc2)nc2c1CCNCC2 (stereo not given)	-10.6%
CN(Cc1n[nH]c(=O)n1Cc1ccccc1F)S(C)(=O)=O	5.65%
COc1ccccc1Oc1ncccc1CNC(=O)C(C)N1CCCC1 (stereo not given)	-1.98%
CC(=O)N1CCN(CC2CCOc3ccccc3C2)CC1 (stereo not given)	-1.42%
CN(C)CCNC(=O)c1cnc2c(c1)nc(-c1ccccc1Cl)n2C	-10.7%
O=C(O)C(c1ccc2c(c1)OCCO2)N1CCCCCC1 (stereo not given)	-7.26%
CC(C(=O)N1CCCC1)N1CCC(c2nccn2CC2CCC2)CC1 (stereo not given)	-4.27%
O=C(N[C@@H]1CCNC[C@H]1O)c1ccc(F)c(Cl)c1	-7.9%
Cc1cc(C)nc(N2Cc3cnn(Cc4ccc(F)cc4)c3C2)n1	13.2%
Cc1noc(C)c1CN1C(=O)[C@H]2CC[C@@H]1CN(Cc1cccnc1N)C2	16.1%
Cn1c(CN2CCCC2)nnc1C1CCCN(C(=O)C2CCOCC2)C1 (stereo not given)	-3.01%
CN(C)S(=O)(=O)N1CCN(C(=O)c2ccc3ccn(C)c3c2)CC1	-7.35%
CC(=O)N1CCCN(c2nccc(-c3cn(C)nc3C)n2)CC1	-2.77%
O=C(c1ccc2c(c1)CCC2)N1C[C@@H](CN2CCOCC2)[C@@H](CO)C1	-6.01%
O=C(CCc1ccc(O)cc1)N1CCC(Cc2ccc(CO)cc2)C1 (stereo not given)	-9.62%
CSCC(=O)N1CCCN(c2ccccc2C)CC1	-4.65%

Compound	cytotoxicity at 70.5 h
CNc1nc(C(=O)N2CCCC(c3nccn3CC3CCC3)C2)cs1 (stereo not given)	8.97%
CCN(CCn1cccn1)Cc1nc(-c2cccs2)oc1C	-9.82%
Cc1cnn(CCC(=O)N2C[C@H]3CC[C@@H]2CN(CC(=O)N(C)C)C3)c1	-3.83%
FC(F)(F)c1nc(NC2CCCC2)c2ccccc2n1	-12.8%
CCCNCC1(O)CCCN(Cc2cccc(C)c2)C1=O (stereo not given)	-3.03%
COc1cccc2c1OCC(C(=O)NC1CCN(S(C)(=O)=O)CC1)C2 (stereo not given)	14%
Cc1nc(Cn2nc(C3CCNCC3)n(Cc3ccccc3)c2=O)no1	6.65%
Cc1cc(F)ccc1CN1CCC(O)(CN2CCCCC2)C1 (stereo not given)	-1.38%
CC(C)N1CCCC2(CCN(C(=O)CCCn3cncn3)C2)C1=O (stereo not given)	-4.98%
Cc1nc(C)c(CC(=O)N2C[C@H]3CC[C@@H]2CN(C(=O)N(C)C)C3)c(=O)[nH]1	15.9%
COCc1noc(-c2ccc(N(C)Cc3cc(C)no3)nc2)n1	-6.05%
O=C(c1ccccn1)N1C[C@@H]2CC[C@H](C1)N(C(=O)CCc1ccsc1)C2	-10.8%
CCCN1CCCn2nc(CNS(=O)(=O)c3ccc(C)cc3)cc2C1	-6.85%
CC(C)CN1CCc2[nH]cnc2C12CCN(C(=O)c1cccnc1)CC2	12.4%
Cn1cc(CNc2ncnc3c2CCN(Cc2ccsc2)CC3)cn1	0.199%
NC(=O)CN1CCC(C(=O)N2CCCC(OCc3cccnc3)C2)CC1 (stereo not given)	-11%
CC(C)SCC(=O)N1CCc2c(nc(N(C)C)nc2N(C)C)C1	-9.5%
COc1ccccc1OCc1cc(C(=O)N2CCN[C@H](C)C2)n[nH]1	-5.99%
Cc1nn2c(N3CCC(O)CC3)cc(-c3ccccc3)nc2c1C	-3.29%
CCn1c(N)nc2cc(C(=O)NCc3ccccc3Cl)cnc21	0.502%
CCOCCn1c(=O)[nH]c2cc(C(=O)N(C)Cc3nc(C)cs3)ccc21	-12.4%
CCc1cnc(N)nc1NCCN1CCCCC1	23%
O=C(c1ccc(C2CCCO2)s1)N1CCN(c2ccccc2F)CC1 (stereo not given)	-4.35%
CC(C)c1cc(N2CCC(N)CC2)n2nccc2n1	-4%
O=C(CO)N1C[C@H]2CC[C@@H]1CN(C1Cc3ccccc3C1)C2	-8.88%
Cc1ncc(C)c(N2CCCC(CO)(Cc3cccc(Cl)c3)C2)n1 (stereo not given)	1.75%
